Holding throughout (experiment): NCI-60 cell line screen, 48 h
For assay [1], the system named is CAKI-1 renal.
For assay [2], the system named is COLO 205 colon.
Assay [3] relates to HCC-2998 colon.
For assay [4], the system named is KM12 colon.
Assay [5] deals with LOX IMVI melanoma.
In assay [6] the test system is MALME-3M melanoma.
In assay [7] the test system is OVCAR-5 ovarian.
Assay [8] has as its system SK-MEL-28 melanoma.
Assay [9] concerns SR leukemia.
Assay [10] deals with UO-31 renal.

Structures are written as SMILES. Where “and” joins values, the source holds several entries; their conditions need not be identical. Identical values can stand only once.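 All cell lines were grown in 96-well plates and treated with compound for 48 hours. Here, GI50 denotes the concentration required for 50% inhibition of growth. Definition used: TGI = concentration required for complete inhibition of growth.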 A value given as a limit tells only on which side of the number the result lay.

Consider `COc1ccc(OC)c2c1[nH]c(=O)c1c3ccccc3cn21`, for which the GI50 is 1.09 µM in assay [1]; 1.2 µM in [2]; 1.34 µM in assay [3]; 1.29 µM in [4]; 1.4 µM in assay [5]; 1.78 µM in [6]. In addition, the GI50 in assay [7] was 1.87 µM; in assay [8], 1.92 µM; in [9] it was 0.189 µM; in assay [10], 1.11 µM. The TGI in [1] came to 2.39 µM; in [2], 2.79 µM; in assay [3] it was 2.68 µM; in assay [4] it was 2.89 µM; in [5] it was 2.88 µM; in assay [6], 3.32 µM. Further, the TGI was determined as 3.69 µM in [7], 3.38 µM in [8], 2.36 µM in [9] and 2.38 µM in assay [10].
Turning to `CN1CCN(C2CCN(C(=O)Nc3cc(Oc4ccc(NC(=O)C5(C(=O)Nc6ccc(F)cc6)CC5)c(F)c4)ccn3)CC2)CC1`, the GI50 in [1] is 0.932 µM; in assay [2], 0.977 µM; in assay [3], over 2.04 µM; in assay [4], 0.292 µM; in assay [5], 1.04 µM; in [6], 0.703 µM. In addition, the GI50 in [7] was 1.58 µM; in assay [8], 0.771 µM; in [9] it was 0.53 µM; in assay [10], 1.46 µM. In addition, the TGI in assay [1] is over 10 µM; in [2], over 2.19 µM; in assay [3], over 10 µM; in assay [4] it was over 2.52 µM; in assay [5], over 10 µM; in assay [6], 2.25 µM. Moreover, the TGI in [7] was over 10 µM; in assay [8] it was 2.28 µM; in assay [9] it was 1.77 µM; in assay [10] it was over 10 µM.
With `CC12C/C(=C\c3ccccc3)C(=O)C3C1CCCC32`, the TGI in assay [1], in assay [2], in assay [3], in assay [4], in assay [5] and in [6] was over 100 µM in each case. For the same compound, the TGI in [7], in [8], in [9] and in assay [10] was over 100 µM throughout.
Regarding `CC(=O)Nc1ccc(S(=O)(=O)N2C(=O)CCC2C(=O)Nc2ccc(Br)cc2)cc1` (stereo unspecified), the GI50 in [1] was 4.37 µM; in assay [2], 3.01 µM; in [3], 3.67 µM; in [4], 1.82 µM; in assay [5], 0.972 µM; in assay [6] it was 2.64 µM. The GI50 was 4.86 µM in [7], 3.49 µM in [8], 1.41 µM in [9] and 1.38 µM in assay [10]. The TGI in assay [1] amounted to 17.7 µM; in assay [2], 11.7 µM; in assay [3], 22.1 µM; in assay [4], 13.7 µM; in assay [5] it was 7.39 µM; in [6], 9.17 µM. The TGI in assay [7] is 21.7 µM; in assay [8] it was 20.9 µM; in [9] it was 5.38 µM; in assay [10], 8.21 µM.
As for `CCCCCCCCCCCCCC(=O)OCC(C[As](=O)(O)O)OC(=O)CCCCCCCCCCCCC` (stereo unspecified), the TGI in assay [1], in assay [3], in assay [4], in [6], in [8] and in assay [9] was over 100 µM each time. Moreover, the TGI in assay [10] is over 100 µM.
Regarding `O=c1/c(=C/c2ccccc2[N+](=O)[O-])sc2nnc(-c3ccco3)n12`, the TGI in assay [1] is over 100 µM; in assay [2] it was over 100 µM; in [3], 43.4 µM; in assay [4], 33.4 µM; in [5], 31.8 µM; in [6] it was 47.1 µM. Moreover, the TGI in [7] was over 100 µM; in [8], 57 µM; in [9], 70.9 µM; in assay [10] it was 96.8 µM.
As to `COC(=O)C[C@](O)(CCCC(C)(C)O)C(=O)O[C@@H]1C(OC)=C[C@]23CCCN2CCc2cc4c(cc2[C@H]13)OCO4`, the GI50 in assay [1] is 0.252 µM; in [2], 0.0283 µM; in assay [3] it was 0.0137 µM; in assay [4], 0.0326 µM; in assay [5], 0.0129 µM; in assay [6] it was 0.0196 µM. The results for the GI50 in assay [7], in [8] and in assay [10] were 0.0489 µM, 0.0222 µM and 0.181 µM, respectively. For the same compound, the TGI in [1] is 1.61 µM and 1.2 µM; in assay [3], 0.246 µM and 0.0428 µM; in assay [4], 0.885 µM and 0.182 µM; in [6], 0.268 µM and 0.0635 µM; in assay [7], 2.93 µM and 0.556 µM; in assay [9] it was 0.751 µM. Also, the TGI in assay [10] was 2.01 µM and 3.13 µM.
On to `c1ccc(-c2nnc(-c3ccccn3)s2)nc1`, for which the GI50 in assay [1], in assay [2], in assay [3], in assay [4], in assay [5] and in assay [6] was over 100 µM each time. Besides, the GI50 in assay [7] was over 100 µM; in assay [8], over 100 µM; in assay [9] it was over 100 µM; in assay [10], 22.3 µM. The TGI in [1], in [2], in [3], in assay [4], in assay [5] and in assay [6] was over 100 µM each time. Further, the TGI in [7], in assay [8], in assay [9] and in assay [10] was over 100 µM in each case.
`O=C(O)COc1ccc2c(=O)c3sc4c(=O)c5ccccc5c(=O)c4c3c(=O)c2c1`: the GI50 in assay [2] was 13.7 µM; in assay [3] it was 11.2 µM; in assay [4], 24.3 µM; in assay [5], 9.18 µM; in [6], 2.12 µM; in [7] it was 17.7 µM. The GI50 was 8.19 µM in [8], 32.8 µM in assay [9] and 11.8 µM in [10]. The TGI was 31.4 µM in [2]; 26.7 µM in [3]; over 100 µM in assay [4]; 61.1 µM in [5]; 4.59 µM in assay [6]; 34.3 µM in assay [7]. The TGI in [8] was 28.6 µM; in assay [9], over 100 µM; in assay [10], 30.1 µM.

Source of the values: PubChem BioAssay (NCI).
